The results in this text go back to US20220389061A1, “IMMUNOMODULATORS” (priority 2019, published 2022).

For this experiment, the target named is T1, PD-1/PD-L1 (Homo sapiens, UniProt Q9NZQ7).
T1 construct: TVMV protease site linker (C); made in house; host or cells: HEK293T cells
Description: PD-1/PD-L1 Homogenous Time-Resolved Fluorescence (HTRF) binding assay. Particulars: PD-L1-His 10 nM pre-incubated with inhibitor, PD-1-Ig 20 nM; read-out: HTRF IC50. In outline: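 HTRF read-out using europium cryptate anti-Ig (1 nM) and APC anti-His (20 nM) on extracellular-domain fusion proteins in dPBS/0.1% BSA/0.05% Tween-20. Inhibitor first incubated 15 min with 10 nM PD-L1-His, followed by 20 nM PD-1-Ig for another 15 min.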

SMILES strings stand for the structures. Starred links: 1 amine or outer side, 2 acyl side, 3 side chain; linkers in the order of their positions; H or OH if unused. Positions of bridges follow the written chain, without caps; N, C: chain ends. Non-standard residues stand in square brackets, D forms with d. Residues, ends and D or L forms follow the SMILES beside them. Groups on a side chain read outwards from the residue. *: point of attachment. Trp(1-CH2CO2Me) = COC(=O)Cn1cc(C[C@H](N)C(=O)O)c2ccccc21; Trp(1-CH2COOH) = N[C@@H](Cc1cn(CC(=O)O)c2ccccc12)C(=O)O; Benzoyl(2-(4-MeOPh)) = COc1ccc(-c2ccccc2C(=O)*)cc1; X23 = COc1cc(NC(=S)*)ccc1-n1cnc(Cl)c1; X24 = COc1cc(NC(=S)*)ccc1-n1cnc(C)n1; Hyp = O=C(O)[C@@H]1C[C@@H](O)CN1; X10 = S=C(Nc1ccc(N2CCOCC2)cc1)*; X19 = CCOC(=O)c1ccc(NC(=S)*)cc1; X3 = S=C(Nc1ccc(Oc2ccccc2)cc1)*; X94 = S=C(Nc1ccc(N2CCOCC2)nc1)*; X96 = Fc1cc(F)c(NC(=S)*)c(F)c1; NMeNle = CCCC[C@H](NC)C(=O)O; NMeA = CN[C@@H](C)C(=O)O; Dab = NCC[C@H](N)C(=O)O; Dap = NC[C@H](N)C(=O)O; CO = O=C([*:1])[*:2]; NHPh = c1ccc(N*)cc1

T1 sequence (Q9NZQ7 18-239): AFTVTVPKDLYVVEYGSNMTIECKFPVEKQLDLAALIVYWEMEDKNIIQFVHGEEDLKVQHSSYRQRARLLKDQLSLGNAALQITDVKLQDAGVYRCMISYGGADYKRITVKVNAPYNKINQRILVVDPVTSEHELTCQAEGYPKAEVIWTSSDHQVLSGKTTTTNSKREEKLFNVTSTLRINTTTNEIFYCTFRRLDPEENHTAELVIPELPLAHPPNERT

For `CCCC[C@H]1C(=O)N(C)[C@@H](CCCC)C(=O)N[C@@H](CC(C)C)C(=O)N[C@H](C(=O)NCC(N)=O)CSCC(=O)N[C@@H](Cc2ccc(O)cc2)C(=O)N(C)[C@@H](C)C(=O)N[C@@H](CC(N)=O)C(=O)N2CCC[C@H]2C(=O)N[C@@H](CNC(=S)Nc2ccc(C(=O)OCC)cc2)C(=O)N[C@@H](CC(C)C)C(=O)N2C[C@H](O)C[C@H]2C(=O)N[C@@H](Cc2c[nH]c3ccccc23)C(=O)N[C@@H](CCN)C(=O)N[C@@H](Cc2cn(CC(=O)O)c3ccccc23)C(=O)N1C` [Example 1042] ({CH2CO}-Y[NMeA]NP[Dap](X19)L[Hyp]W[Dab][Trp(1-CH2COOH)][NMeNle][NMeNle]LCG-NH2; thioether N-14), the IC50 stood at 4 nM.

As for `CCCC[C@H]1C(=O)N(C)[C@@H](CCCC)C(=O)N[C@@H](CC(C)C)C(=O)N[C@H](C(=O)NCC(N)=O)CSCC(=O)N[C@@H](Cc2ccc(O)cc2)C(=O)N(C)[C@@H](C)C(=O)N[C@@H](CC(N)=O)C(=O)N2CCC[C@H]2C(=O)N[C@@H](CNC(=S)Nc2ccc(C(=O)OCC)cc2)C(=O)N[C@@H](CC(C)C)C(=O)N2C[C@H](O)C[C@H]2C(=O)N[C@@H](Cc2c[nH]c3ccccc23)C(=O)N[C@@H](CCNC(=S)Nc2ccc(C(=O)OCC)cc2)C(=O)N[C@@H](Cc2cn(CC(=O)O)c3ccccc23)C(=O)N1C` [Example 1043] ({CH2CO}-Y[NMeA]NP[Dap](X19)L[Hyp]W[Dab](X19)[Trp(1-CH2COOH)][NMeNle][NMeNle]LCG-NH2; thioether N-14), the IC50 is 0.6 nM.

In the case of `CCCC[C@H]1C(=O)N(C)[C@@H](CCCC)C(=O)N[C@@H](CC(C)C)C(=O)N[C@H](C(=O)NCC(N)=O)CSCC(=O)N[C@@H](Cc2ccc(O)cc2)C(=O)N(C)[C@@H](C)C(=O)N[C@@H](CC(N)=O)C(=O)N2CCC[C@H]2C(=O)N[C@@H](CNC(=S)Nc2c(F)cc(F)cc2F)C(=O)N[C@@H](CC(C)C)C(=O)N2C[C@H](O)C[C@H]2C(=O)N[C@@H](Cc2c[nH]c3ccccc23)C(=O)N[C@@H](CCNC(=S)Nc2c(F)cc(F)cc2F)C(=O)N[C@@H](Cc2cn(CC(=O)O)c3ccccc23)C(=O)N1C` [Example 1044] ({CH2CO}-Y[NMeA]NP[Dap](X96)L[Hyp]W[Dab](X96)[Trp(1-CH2COOH)][NMeNle][NMeNle]LCG-NH2; thioether N-14), the IC50 came to 3.3 nM.

Consider `CCCC[C@H]1C(=O)N(C)[C@@H](CCCC)C(=O)N[C@@H](CC(C)C)C(=O)N[C@H](C(=O)NCC(N)=O)CSCC(=O)N[C@@H](Cc2ccc(O)cc2)C(=O)N(C)[C@@H](C)C(=O)N[C@@H](CC(N)=O)C(=O)N2CCC[C@H]2C(=O)N[C@@H](CNC(=S)Nc2ccc(Oc3ccccc3)cc2)C(=O)N[C@@H](CC(C)C)C(=O)N2C[C@H](O)C[C@H]2C(=O)N[C@@H](Cc2c[nH]c3ccccc23)C(=O)N[C@@H](CCN)C(=O)N[C@@H](Cc2cn(CC(=O)O)c3ccccc23)C(=O)N1C` [Example 1045] ({CH2CO}-Y[NMeA]NP[Dap](X3)L[Hyp]W[Dab][Trp(1-CH2COOH)][NMeNle][NMeNle]LCG-NH2; thioether N-14), for which the IC50 amounted to 3.3 nM.

Take `CCCC[C@H]1C(=O)N(C)[C@@H](CCCC)C(=O)N[C@@H](CC(C)C)C(=O)N[C@H](C(=O)NCC(N)=O)CSCC(=O)N[C@@H](Cc2ccc(O)cc2)C(=O)N(C)[C@@H](C)C(=O)N[C@@H](CC(N)=O)C(=O)N2CCC[C@H]2C(=O)N[C@@H](CNC(=S)Nc2ccc(Oc3ccccc3)cc2)C(=O)N[C@@H](CC(C)C)C(=O)N2C[C@H](O)C[C@H]2C(=O)N[C@@H](Cc2c[nH]c3ccccc23)C(=O)N[C@@H](CCNC(=S)Nc2ccc(Oc3ccccc3)cc2)C(=O)N[C@@H](Cc2cn(CC(=O)O)c3ccccc23)C(=O)N1C` [Example 1046] ({CH2CO}-Y[NMeA]NP[Dap](X3)L[Hyp]W[Dab](X3)[Trp(1-CH2COOH)][NMeNle][NMeNle]LCG-NH2; thioether N-14): the IC50 came to 11 nM.

As for `CCCC[C@H]1C(=O)N(C)[C@@H](CCCC)C(=O)N[C@@H](CC(C)C)C(=O)N[C@H](C(=O)NCC(N)=O)CSCC(=O)N[C@@H](Cc2ccc(O)cc2)C(=O)N(C)[C@@H](C)C(=O)N[C@@H](CC(N)=O)C(=O)N2CCC[C@H]2C(=O)N[C@@H](CNC(=O)c2ccccc2-c2ccc(OC)cc2)C(=O)N[C@@H](CC(C)C)C(=O)N2C[C@H](O)C[C@H]2C(=O)N[C@@H](Cc2c[nH]c3ccccc23)C(=O)N[C@@H](CCNC(=O)c2ccccc2-c2ccc(OC)cc2)C(=O)N[C@@H](Cc2cn(CC(=O)OC)c3ccccc23)C(=O)N1C` [Example 1050] ({CH2CO}-Y[NMeA]NP[Dap](Benzoyl(2-(4-MeOPh)))L[Hyp]W[Dab](Benzoyl(2-(4-MeOPh)))[Trp(1-CH2CO2Me)][NMeNle][NMeNle]LCG-NH2; thioether N-14), the IC50 worked out at 39 nM.

For `CCCC[C@H]1C(=O)N(C)[C@@H](CCCC)C(=O)N[C@@H](CC(C)C)C(=O)N[C@H](C(=O)NCC(N)=O)CSCC(=O)N[C@@H](Cc2ccc(O)cc2)C(=O)N(C)[C@@H](C)C(=O)N[C@@H](CC(N)=O)C(=O)N2CCC[C@H]2C(=O)N[C@@H](CNC(=S)Nc2ccc(N3CCOCC3)cc2)C(=O)N[C@@H](CC(C)C)C(=O)N2C[C@H](O)C[C@H]2C(=O)N[C@@H](Cc2c[nH]c3ccccc23)C(=O)N[C@@H](CCN)C(=O)N[C@@H](Cc2cn(CC(=O)OC)c3ccccc23)C(=O)N1C` [Example 1053] ({CH2CO}-Y[NMeA]NP[Dap](X10)L[Hyp]W[Dab][Trp(1-CH2CO2Me)][NMeNle][NMeNle]LCG-NH2; thioether N-14), the IC50 was 3.2 nM.

In the case of `CCCC[C@H]1C(=O)N(C)[C@@H](CCCC)C(=O)N[C@@H](CC(C)C)C(=O)N[C@H](C(=O)NCC(N)=O)CSCC(=O)N[C@@H](Cc2ccc(O)cc2)C(=O)N(C)[C@@H](C)C(=O)N[C@@H](CC(N)=O)C(=O)N2CCC[C@H]2C(=O)N[C@@H](CNC(=S)Nc2ccc(-n3cnc(C)n3)c(OC)c2)C(=O)N[C@@H](CC(C)C)C(=O)N2C[C@H](O)C[C@H]2C(=O)N[C@@H](Cc2c[nH]c3ccccc23)C(=O)N[C@@H](CCN)C(=O)N[C@@H](Cc2cn(CC(=O)O)c3ccccc23)C(=O)N1C` [Example 1054] ({CH2CO}-Y[NMeA]NP[Dap](X24)L[Hyp]W[Dab][Trp(1-CH2COOH)][NMeNle][NMeNle]LCG-NH2; thioether N-14), the half-inhibitory concentration (IC50) was 3.5 nM.

On to `CCCC[C@H]1C(=O)N(C)[C@@H](CCCC)C(=O)N[C@@H](CC(C)C)C(=O)N[C@H](C(=O)NCC(N)=O)CSCC(=O)N[C@@H](Cc2ccc(O)cc2)C(=O)N(C)[C@@H](C)C(=O)N[C@@H](CC(N)=O)C(=O)N2CCC[C@H]2C(=O)N[C@@H](CNC(=S)Nc2ccc(N3CCOCC3)cc2)C(=O)N[C@@H](CC(C)C)C(=O)N2C[C@H](O)C[C@H]2C(=O)N[C@@H](Cc2c[nH]c3ccccc23)C(=O)N[C@@H](CCN)C(=O)N[C@@H](Cc2cn(CC(=O)O)c3ccccc23)C(=O)N1C` [Example 1055] ({CH2CO}-Y[NMeA]NP[Dap](X10)L[Hyp]W[Dab][Trp(1-CH2COOH)][NMeNle][NMeNle]LCG-NH2; thioether N-14), for which the IC50 amounted to 0.9 nM.

Regarding `CCCC[C@H]1C(=O)N(C)[C@@H](CCCC)C(=O)N[C@@H](CC(C)C)C(=O)N[C@H](C(=O)NCC(N)=O)CSCC(=O)N[C@@H](Cc2ccc(O)cc2)C(=O)N(C)[C@@H](C)C(=O)N[C@@H](CC(N)=O)C(=O)N2CCC[C@H]2C(=O)N[C@@H](CNC(=O)Nc2ccccc2)C(=O)N[C@@H](CC(C)C)C(=O)N2C[C@H](O)C[C@H]2C(=O)N[C@@H](Cc2c[nH]c3ccccc23)C(=O)N[C@@H](CCN)C(=O)N[C@@H](Cc2cn(CC(=O)O)c3ccccc23)C(=O)N1C` [Example 1056] ({CH2CO}-Y[NMeA]NP[Dap]([CO-NHPh])L[Hyp]W[Dab][Trp(1-CH2COOH)][NMeNle][NMeNle]LCG-NH2; thioether N-14), the IC50 is 3.1 nM.

As to `CCCC[C@H]1C(=O)N(C)[C@@H](CCCC)C(=O)N[C@@H](CC(C)C)C(=O)N[C@H](C(=O)NCC(N)=O)CSCC(=O)N[C@@H](Cc2ccc(O)cc2)C(=O)N(C)[C@@H](C)C(=O)N[C@@H](CC(N)=O)C(=O)N2CCC[C@H]2C(=O)N[C@@H](CNC(=O)c2ccccc2-c2ccc(OC)cc2)C(=O)N[C@@H](CC(C)C)C(=O)N2C[C@H](O)C[C@H]2C(=O)N[C@@H](Cc2c[nH]c3ccccc23)C(=O)N[C@@H](CCN)C(=O)N[C@@H](Cc2cn(CC(=O)OC)c3ccccc23)C(=O)N1C` [Example 1057] ({CH2CO}-Y[NMeA]NP[Dap](Benzoyl(2-(4-MeOPh)))L[Hyp]W[Dab][Trp(1-CH2CO2Me)][NMeNle][NMeNle]LCG-NH2; thioether N-14), the IC50 turned out to be 3.2 nM.

With `CCCC[C@H]1C(=O)N(C)[C@@H](CCCC)C(=O)N[C@@H](CC(C)C)C(=O)N[C@H](C(=O)NCC(N)=O)CSCC(=O)N[C@@H](Cc2ccc(O)cc2)C(=O)N(C)[C@@H](C)C(=O)N[C@@H](CC(N)=O)C(=O)N2CCC[C@H]2C(=O)N[C@@H](CNC(=S)Nc2ccc(N3CCOCC3)nc2)C(=O)N[C@@H](CC(C)C)C(=O)N2C[C@H](O)C[C@H]2C(=O)N[C@@H](Cc2c[nH]c3ccccc23)C(=O)N[C@@H](CCN)C(=O)N[C@@H](Cc2cn(CC(=O)O)c3ccccc23)C(=O)N1C` [Example 1058] ({CH2CO}-Y[NMeA]NP[Dap](X94)L[Hyp]W[Dab][Trp(1-CH2COOH)][NMeNle][NMeNle]LCG-NH2; thioether N-14), the IC50 is 4 nM.

As to `CCCC[C@H]1C(=O)N(C)[C@@H](CCCC)C(=O)N[C@@H](CC(C)C)C(=O)N[C@H](C(=O)NCC(N)=O)CSCC(=O)N[C@@H](Cc2ccc(O)cc2)C(=O)N(C)[C@@H](C)C(=O)N[C@@H](CC(N)=O)C(=O)N2CCC[C@H]2C(=O)N[C@@H](CNC(=S)Nc2ccc(-n3cnc(Cl)c3)c(OC)c2)C(=O)N[C@@H](CC(C)C)C(=O)N2C[C@H](O)C[C@H]2C(=O)N[C@@H](Cc2c[nH]c3ccccc23)C(=O)N[C@@H](CCN)C(=O)N[C@@H](Cc2cn(CC(=O)O)c3ccccc23)C(=O)N1C` [Example 1059] ({CH2CO}-Y[NMeA]NP[Dap](X23)L[Hyp]W[Dab][Trp(1-CH2COOH)][NMeNle][NMeNle]LCG-NH2; thioether N-14), the IC50 stood at 3.5 nM.
